According to patent US8497294B2, “Compositions comprising (S)-2-amino-1-(4-chlorophenyl)-1-[4-(1H-pyrazol-4-yl)-phenyl]-ethanol as modulator of protein kinases” (Astex Therapeutics Limited, priority 2007, dated 2013):
pIC50: −log10 of the molar value.

Tests used:
PKB = PKB (Homo sapiens, UniProt P31751); test: Activity against the kinase PKB (method not given); details: compound and its acid addition salts
[1] = molecular target: T1, protein kinase B (PKB), fusion protein PKB-PIF (Homo sapiens, UniProt P31751); test: PKB kinase inhibitory activity, in vitro radiometric assay; assay type: biochemical; details: (radiometric) binding assay, relative to the other enantiomer
T1 construct: made in house
Excerpt: The inhibition of protein kinase B (PKB) activity by compounds can be determined essentially as described by Andjelkovic et al. (Mol. Cell. Biol. 19, 5061-5072 (1999)) but using a fusion protein described as PKB-PIF and described in full by Yang et al (Nature Structural Biology 9, 940-944 (2002)). The protein is purified and activated with PDK1 as described by Yang et al. The peptide AKTide-2T (H-A-R—K—R-E-R-T-Y—S—F-G-H—H-A-OH) obtained from Calbiochem (#123900) is used as a substrate. A final concentration of 0.6 nM enzyme is used in a buffer that includes 20 mM MOPS pH 7.2, 30 μM ATP/γ^33P-ATP and 25 μM substrate. Compounds are added in DMSO solution to a final DMSO concentration of 2.5%. The reaction is allowed to proceed for 20 minutes before addition of excess orthophosphoric acid to quench activity. The reaction mixture is transferred to a phosphocellulose filter plate where the peptide binds and the unused ATP is washed away. After washing, scintillant is added and the incorporated activity measured by scintillation counting.

[2] = system: phosphorylation of GSK3β on serine 9 in U87MG cells; test: Cell based phospho-Ser9 GSK3β ELISA (mechanistic cellular assay); details: for activity in mechanistic cellular ELISA assay: result in words
Procedure: The effect on inhibiting PKB in U87MG cells is determined by the ability of compounds to inhibit phosphorylation of the direct downstream substrate GSK3β on serine 9. Cells are plated in 96 well plates and allowed to recover overnight prior to addition of the inhibitor compound for 1 hour. After 1 hour, cell are fixed and blocked with 3% paraformaldehyde, 0.25% gluteraldehyde, 0.25% Triton X100 and 5% Marvel in TBS-T. Following this cells are incubated with primary antibody directed to the phosphorylated form of GSK3β (Cell Signaling) overnight at 4° C. After washing, cells are incubated with secondary antibody using the DELFIA reagents (Eu—N1 anti-rabbit IgG antibody) for 1 h, and following enhancement plates are read on a time-resolved fluorescence reader at excitation 340 nm and emission 640 nm. All cells are obtained from ECACC (European Collection of Cell Cultures).
1. U87MG cells plated at 12,500 cells/well in 160 ul media/well in a 96 well plate
2. Incubate for 24 hours at 37° C.
3. Treat cells with the inhibitor and DMSO control
4. Incubate for 1 hour at 37° C.
5. Media flicked from the plate and blot on paper
6. 100 μl fixing solution added to each well (3% paraformaldehyde, 0.25% gluteraldehyde, 0.25% Triton X100)
7. Incubate for 30 minutes at 37° C.
8. Wash 1× with water/0.1% Tween20
9. Block with 100 μl 5% milk/TBS-T
10. Incubate for 30 minutes at 37° C.
11. 100 μl primary antibody diluted in 5% milk/TBS-T added to each well (CST #9336 Phospho-Ser9 GSK3β antibody used at 1:250)
• include a column control with no 1 ab—just 5% milk/TBS-T • can also include a column of Zymed rabbit IgG (02-6102-5 mg/mL) control diluted in 5% milk/TBS-T to the same concentration as the phospho-Ser9 GSK3β if required 12. Incubate overnight at 4° C. 13. Wash 3× with water/0.1% Tween20 14. 100 μl secondary antibody diluted in Delfia Assay Buffer added to each well (Delfia Eu—N1 anti-rabbit IgG antibody used at 0.30 μg/ml final conc) 15. Incubate for 1 hour at 37° C. 16. Wash 3× with water/0.1% Tween20 17. 100 μl Delfia Enhancement Solution added to each well 18. Shake on plate shaker for 15 minutes 19. Read on Delfia programme (excitation 340 nm−emission […])=Europium counts 20. Wash 1× with water/0.1% Tween 20 21. 200 μl BCA solution added per well (BCA with 1:50 Copper II Sulfate) 22. Incubate for 30 minutes at 37° C. 23. Read at absorbance 562 nm=protein concentration

ROCK = details: cited from earlier work
PKA catalytic domain = molecular target: T2, PKA catalytic domain (Homo sapiens, UniProt P17612); test: PKA kinase inhibitory activity, radiometric assay; assay type: biochemical
T2 construct: using the PKA catalytic domain from Upstate Biotechnology (#14-440); purchased Upstate Biotechnology 14-440
Procedure: A final concentration of 1 nM enzyme is used in a buffer that includes 20 mM MOPS pH 7.2, 40 μM ATP/γ^33P-ATP and […] substrate. Compounds are added in dimethylsulphoxide (DMSO) solution to a final DMSO concentration of 2.5%. The reaction is allowed to proceed for 20 minutes before addition of excess orthophosphoric acid to quench activity. Unincorporated γ^33P-ATP is then separated from phosphorylated proteins on a Millipore MAPH filter plate. The plates are washed, scintillant is added and the plates are then subjected to counting on a Packard Topcount.

CYP450 1A2 = molecular target: T3, CYP450 1A2 (Homo sapiens, UniProt P05177); test: Potency against cytochrome P450 1A2 (Vivid screening kit); assay type: in vitro ADME; details: tested at a concentration of 10 μM
T3 construct: purchased Invitrogen (Paisley, UK), Pan Vera Vivid screening kits; host or cells: baculosomes
T3 sequence (P05177 1-516): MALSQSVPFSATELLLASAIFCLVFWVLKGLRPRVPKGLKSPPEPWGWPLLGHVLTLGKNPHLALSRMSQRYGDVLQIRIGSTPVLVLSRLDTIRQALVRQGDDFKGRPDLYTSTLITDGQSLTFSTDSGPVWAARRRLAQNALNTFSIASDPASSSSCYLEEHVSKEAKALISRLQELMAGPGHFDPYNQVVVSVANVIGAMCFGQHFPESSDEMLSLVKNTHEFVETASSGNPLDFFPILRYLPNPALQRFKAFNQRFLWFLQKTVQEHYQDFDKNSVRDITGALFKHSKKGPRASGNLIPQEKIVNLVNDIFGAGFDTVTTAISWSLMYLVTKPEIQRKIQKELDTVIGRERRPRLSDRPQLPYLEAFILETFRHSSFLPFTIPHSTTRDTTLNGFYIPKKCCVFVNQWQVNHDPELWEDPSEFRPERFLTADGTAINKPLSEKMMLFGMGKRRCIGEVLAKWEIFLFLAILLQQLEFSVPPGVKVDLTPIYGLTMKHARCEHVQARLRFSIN
Procedure: (§1) The potency of the compound of Example 1 against cytochrome P450 (CYP450) enzymes 1A2, 2C9, 2C19, 3A4 and 2D6 was determined using the Pan Vera Vivid C450 screening kits available from Invitrogen (Paisley, UK). The CYP450s were supplied in the form of baculosomes containing the CYP450 and NADPH reductase and the substrates used were the fluorescent Vivid substrates. The final reaction mixtures were as follows:
100 mM potassium phosphate, pH 8, 1% acetonitrile, 2 μM 1A2 Blue vivid substrate, 100 μM NADP^+, 4 nM CYP450 1A2, 2.66 mM glucose-6-phosphate, 0.32 U/ml glucose-6-phosphate dehydrogenase.
(§2) Fluorescence was monitored for 20 minutes at 30 second intervals on a Fluoroskan fluorescence plate reader. The excitation and emission wavelengths were 390 nm and 460 nm for 1A2, 2C19 and 3A4, 390 nm and 485 nm for 2D6 and 485 nm and 530 nm for 2C9. Initial rates were determined from progress curves.
(§3) The test compound was made up in acetonitrile and tested against the CYP450s at a concentration of 10 μM.

CYP450 2C9 = molecular target: T4, CYP450 2C9 (Homo sapiens, UniProt P11712); test: Potency against cytochrome P450 2C9 (Vivid screening kit); assay type: in vitro ADME; details: tested at a concentration of 10 μM
T4 construct: purchased Invitrogen (Paisley, UK), Pan Vera Vivid screening kits; host or cells: baculosomes
Procedure: as §1
50 mM potassium phosphate, pH 8, 1% acetonitrile, 2 μM Green vivid substrate, 100 μM NADP^+, 8 nM CYP450 2C9, 2.66 mM glucose-6-phosphate, 0.32 U/ml glucose-6-phosphate dehydrogenase.
as §2, §3

CYP450 2C19 = molecular target: T5, CYP450 2C19 (Homo sapiens, UniProt P33261); test: Potency against cytochrome P450 2C19 (Vivid screening kit); assay type: in vitro ADME; details: tested at a concentration of 10 μM
T5 construct: purchased Invitrogen (Paisley, UK), Pan Vera Vivid screening kits; host or cells: baculosomes
Procedure: as §1
50 mM potassium phosphate, pH 8, 1% acetonitrile, 8 μM Blue vivid substrate, 100 μM NADP^+, 4 nM CYP450 2C19, 2.66 mM glucose-6-phosphate, 0.32 U/ml glucose-6-phosphate dehydrogenase.
as §2, §3

CYP450 2D6 = molecular target: T6, CYP450 2D6 (Homo sapiens, UniProt P10635); test: Potency against cytochrome P450 2D6 (Vivid screening kit); assay type: in vitro ADME; details: tested at a concentration of 10 μM
T6 construct: purchased Invitrogen (Paisley, UK), Pan Vera Vivid screening kits; host or cells: baculosomes
Procedure: as §1
100 mM potassium phosphate, pH 8, 1% acetonitrile, 5 μM 2D6 Blue vivid substrate, 100 μM NADP^+, 16 nM CYP450 2D6, 2.66 mM glucose-6-phosphate, 0.32 U/ml glucose-6-phosphate dehydrogenase.
as §2, §3

ROCK-II (h) = ROCK-II (h) (Homo sapiens, UniProt O75116); test: ROCK-II (h) assay; assay type: biochemical; details: below the limit of the assay
Procedure: In a final reaction volume of 25 μl ROCK-II (h) (5-10 mU) is incubated with 50 mM Tris pH 7.5, 0.1 mM EGTA, 30 μM […], 10 mM MgAcetate and [γ-^33P-ATP] (specific activity approx. 500 cpm/pmol, concentration as required). The reaction is initiated by the addition of the MgATP mix. After incubation for 40 minutes at room temperature, the reaction is stopped by the addition of 5 μl of a 3% phosphoric acid solution. 10 μl of the reaction is then spotted onto a P30 filtermat and washed three times for 5 minutes in 75 mM phosphoric acid and once in methanol prior to drying and scintillation counting.

P70S6 kinase (T412E) = molecular target: T7, P70S6 kinase (T412E) (Homo sapiens, UniProt P23443, T412E); test: p70S6K radiometric assay; assay type: biochemical; details: approximately 15 μM ATP
T7 construct: purchased Upstate 14-486
Procedure: P70S6 enzyme is bought from Upstate and used at 2 nM in the assay.
The substrate S6 cocktail ([…]) is used at […] (Km has not been determined). In the phosphoryl transfer reaction, the ^33P-γ phosphate from ATP is transferred to the serine residue. The reaction mixture is transferred to a phosphocellulose filter plate where the peptide binds and the unused ATP is washed away. After washing, scintillant is added and the incorporated activity measured by scintillation counting.
S6 kinase substrate cocktail from Upstate (#20-122)
Assay Buffer 10 mM MOPS pH 7.0
• 0.1 mg/ml BSA • 0.001% Brij-35 • 0.5% glycerol • 0.2 mM EDTA • 10 mM MgCl2 • 0.01% β-mercaptoethanol • Made as a 10× stock, stored at […] in 2 ml aliquots • 15 μM ATP
Compounds—prepare a dilution curve in DMSO in a polypropylene 96 well plate to 40× final assay concentration (final DMSO 2.5%).
• 5 μl compound • 10 μl substrate mix • 10 μl enzyme mix
Final ATP concentration is approximately 15 μM. KM for ATP calculated to 47 uM radiometrically. Controls are “no compound” (DMSO only) and “no enzyme” (use 10 μl of the enzyme mix prior to adding enzyme). Cover with a plate seal (TopSeal A—Packard) or plastic lid from filter plate (moderate radiation barrier). Mix by gentle shaking. Incubate at room temperature for 50 minutes. Stop the reaction by adding 20 μl of 2% orthophosphoric acid. […]

hERG K+ ion channel = hERG K+ ion channel (Homo sapiens, UniProt Q12809); test: hERG activity
Sequence of hERG K+ ion channel (Q12809 whole entry): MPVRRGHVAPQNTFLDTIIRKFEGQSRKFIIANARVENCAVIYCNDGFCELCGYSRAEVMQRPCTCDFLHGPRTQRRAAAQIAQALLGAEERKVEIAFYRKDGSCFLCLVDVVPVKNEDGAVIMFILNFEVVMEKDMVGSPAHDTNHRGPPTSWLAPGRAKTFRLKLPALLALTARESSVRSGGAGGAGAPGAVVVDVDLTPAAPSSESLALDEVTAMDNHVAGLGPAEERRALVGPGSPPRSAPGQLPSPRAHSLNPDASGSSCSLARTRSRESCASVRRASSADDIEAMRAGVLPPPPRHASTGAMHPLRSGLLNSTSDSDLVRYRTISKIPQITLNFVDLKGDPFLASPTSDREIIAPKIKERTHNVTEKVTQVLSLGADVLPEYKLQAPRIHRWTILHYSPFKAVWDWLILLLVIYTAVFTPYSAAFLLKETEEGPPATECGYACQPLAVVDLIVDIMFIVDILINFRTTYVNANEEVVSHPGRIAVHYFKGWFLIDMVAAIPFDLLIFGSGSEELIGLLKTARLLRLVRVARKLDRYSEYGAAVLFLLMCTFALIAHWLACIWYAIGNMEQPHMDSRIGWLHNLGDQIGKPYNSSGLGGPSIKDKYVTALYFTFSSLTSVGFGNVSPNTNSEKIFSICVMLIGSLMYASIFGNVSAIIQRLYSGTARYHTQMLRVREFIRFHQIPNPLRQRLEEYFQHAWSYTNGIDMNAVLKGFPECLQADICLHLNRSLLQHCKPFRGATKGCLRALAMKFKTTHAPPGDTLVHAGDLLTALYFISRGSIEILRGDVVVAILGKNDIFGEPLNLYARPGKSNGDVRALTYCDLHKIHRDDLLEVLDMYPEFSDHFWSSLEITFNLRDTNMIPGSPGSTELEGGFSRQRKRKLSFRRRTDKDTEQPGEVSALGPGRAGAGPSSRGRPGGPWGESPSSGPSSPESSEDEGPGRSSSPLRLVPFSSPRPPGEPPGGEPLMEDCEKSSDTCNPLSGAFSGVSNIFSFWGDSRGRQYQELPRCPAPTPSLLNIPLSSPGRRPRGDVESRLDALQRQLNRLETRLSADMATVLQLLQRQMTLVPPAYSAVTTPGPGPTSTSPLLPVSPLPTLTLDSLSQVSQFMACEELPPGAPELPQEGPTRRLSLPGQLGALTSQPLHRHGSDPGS

T1 sequence (P31751 with tags, fused parts or gaps limits assumed): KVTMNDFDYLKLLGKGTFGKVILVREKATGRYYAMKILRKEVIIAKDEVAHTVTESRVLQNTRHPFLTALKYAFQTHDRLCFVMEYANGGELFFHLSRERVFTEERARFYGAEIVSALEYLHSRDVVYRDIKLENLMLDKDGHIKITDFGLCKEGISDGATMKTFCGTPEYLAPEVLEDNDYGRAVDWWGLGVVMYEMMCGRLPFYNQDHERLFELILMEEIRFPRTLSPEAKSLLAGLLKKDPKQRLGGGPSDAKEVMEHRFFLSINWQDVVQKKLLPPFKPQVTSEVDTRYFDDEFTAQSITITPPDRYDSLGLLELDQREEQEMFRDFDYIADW
T4 sequence (P11712 whole entry): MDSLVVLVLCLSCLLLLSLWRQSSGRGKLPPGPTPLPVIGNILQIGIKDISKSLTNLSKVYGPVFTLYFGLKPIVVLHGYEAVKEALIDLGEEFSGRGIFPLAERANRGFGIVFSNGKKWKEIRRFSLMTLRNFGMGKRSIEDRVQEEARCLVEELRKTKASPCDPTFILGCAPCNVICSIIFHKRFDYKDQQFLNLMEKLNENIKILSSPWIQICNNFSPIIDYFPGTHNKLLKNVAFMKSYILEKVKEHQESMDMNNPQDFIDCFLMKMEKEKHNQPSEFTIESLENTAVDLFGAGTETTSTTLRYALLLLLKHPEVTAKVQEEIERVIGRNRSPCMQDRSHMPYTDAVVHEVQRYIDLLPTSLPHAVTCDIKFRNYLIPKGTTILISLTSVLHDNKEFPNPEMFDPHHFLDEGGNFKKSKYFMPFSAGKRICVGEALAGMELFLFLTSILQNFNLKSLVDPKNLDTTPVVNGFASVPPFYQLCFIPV
T5 sequence (P33261 whole entry): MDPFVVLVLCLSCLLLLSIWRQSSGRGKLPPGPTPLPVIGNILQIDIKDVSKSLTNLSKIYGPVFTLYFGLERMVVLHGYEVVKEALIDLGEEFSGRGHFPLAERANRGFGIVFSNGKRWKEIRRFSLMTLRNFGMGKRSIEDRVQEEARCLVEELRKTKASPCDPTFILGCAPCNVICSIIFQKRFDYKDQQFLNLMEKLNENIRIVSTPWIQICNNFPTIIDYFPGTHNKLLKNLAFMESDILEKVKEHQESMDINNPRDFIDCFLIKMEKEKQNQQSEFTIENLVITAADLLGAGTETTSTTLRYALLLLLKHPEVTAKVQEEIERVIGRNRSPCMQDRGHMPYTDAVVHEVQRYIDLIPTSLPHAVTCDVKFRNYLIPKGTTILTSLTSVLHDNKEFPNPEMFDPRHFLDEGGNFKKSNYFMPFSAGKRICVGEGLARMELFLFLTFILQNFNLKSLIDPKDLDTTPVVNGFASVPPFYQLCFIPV
Sequence of ROCK-II (h) (O75116 whole entry): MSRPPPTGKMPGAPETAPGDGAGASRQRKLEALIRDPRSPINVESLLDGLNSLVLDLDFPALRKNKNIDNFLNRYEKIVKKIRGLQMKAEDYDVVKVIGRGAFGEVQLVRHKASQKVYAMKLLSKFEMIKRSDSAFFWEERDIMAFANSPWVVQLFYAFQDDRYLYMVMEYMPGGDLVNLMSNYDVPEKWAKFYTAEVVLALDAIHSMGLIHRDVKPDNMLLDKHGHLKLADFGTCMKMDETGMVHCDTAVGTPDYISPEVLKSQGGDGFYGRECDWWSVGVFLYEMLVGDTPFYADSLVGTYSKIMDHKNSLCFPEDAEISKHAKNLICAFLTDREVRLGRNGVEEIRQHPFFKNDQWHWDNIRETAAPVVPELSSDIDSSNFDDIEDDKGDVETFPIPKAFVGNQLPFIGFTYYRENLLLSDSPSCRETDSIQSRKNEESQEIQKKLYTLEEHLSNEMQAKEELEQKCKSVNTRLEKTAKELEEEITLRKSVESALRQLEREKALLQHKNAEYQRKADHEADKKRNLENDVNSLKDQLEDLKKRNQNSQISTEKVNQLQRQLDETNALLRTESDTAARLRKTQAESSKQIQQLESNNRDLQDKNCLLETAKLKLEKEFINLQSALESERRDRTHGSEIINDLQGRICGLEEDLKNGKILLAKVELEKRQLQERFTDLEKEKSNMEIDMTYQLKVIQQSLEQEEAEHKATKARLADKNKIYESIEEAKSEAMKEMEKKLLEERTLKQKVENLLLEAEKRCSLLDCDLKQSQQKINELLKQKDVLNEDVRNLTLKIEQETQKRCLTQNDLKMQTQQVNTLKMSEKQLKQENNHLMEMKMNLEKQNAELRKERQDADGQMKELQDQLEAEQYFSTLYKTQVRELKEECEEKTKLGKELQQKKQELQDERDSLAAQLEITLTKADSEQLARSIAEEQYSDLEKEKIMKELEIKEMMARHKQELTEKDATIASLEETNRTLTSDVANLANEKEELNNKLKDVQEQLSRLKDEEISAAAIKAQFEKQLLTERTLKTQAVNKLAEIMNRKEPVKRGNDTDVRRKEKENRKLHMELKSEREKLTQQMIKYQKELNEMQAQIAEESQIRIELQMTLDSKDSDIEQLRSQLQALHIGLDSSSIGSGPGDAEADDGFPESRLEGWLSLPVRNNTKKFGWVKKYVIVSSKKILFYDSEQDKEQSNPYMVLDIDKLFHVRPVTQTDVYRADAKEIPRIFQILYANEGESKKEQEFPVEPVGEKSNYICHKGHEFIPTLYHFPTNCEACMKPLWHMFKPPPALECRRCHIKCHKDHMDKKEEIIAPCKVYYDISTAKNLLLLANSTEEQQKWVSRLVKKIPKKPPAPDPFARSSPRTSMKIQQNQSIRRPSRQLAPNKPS
Sequence of PKB (P31751 whole entry, the tested form may be a part): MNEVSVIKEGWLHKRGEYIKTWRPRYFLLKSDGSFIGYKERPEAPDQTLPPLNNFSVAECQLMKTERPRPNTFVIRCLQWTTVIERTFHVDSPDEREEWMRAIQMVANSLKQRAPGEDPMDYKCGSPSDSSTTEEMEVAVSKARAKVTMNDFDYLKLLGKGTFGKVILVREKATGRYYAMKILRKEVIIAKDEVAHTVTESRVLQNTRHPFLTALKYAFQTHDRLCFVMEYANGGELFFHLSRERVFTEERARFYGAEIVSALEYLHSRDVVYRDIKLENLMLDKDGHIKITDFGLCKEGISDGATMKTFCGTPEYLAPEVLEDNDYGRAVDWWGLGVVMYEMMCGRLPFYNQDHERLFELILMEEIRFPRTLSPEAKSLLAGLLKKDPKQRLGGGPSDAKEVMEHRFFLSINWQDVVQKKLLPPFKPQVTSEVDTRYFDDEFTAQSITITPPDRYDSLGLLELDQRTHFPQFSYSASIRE
T7 sequence (P23443 1-421 T412E limits assumed): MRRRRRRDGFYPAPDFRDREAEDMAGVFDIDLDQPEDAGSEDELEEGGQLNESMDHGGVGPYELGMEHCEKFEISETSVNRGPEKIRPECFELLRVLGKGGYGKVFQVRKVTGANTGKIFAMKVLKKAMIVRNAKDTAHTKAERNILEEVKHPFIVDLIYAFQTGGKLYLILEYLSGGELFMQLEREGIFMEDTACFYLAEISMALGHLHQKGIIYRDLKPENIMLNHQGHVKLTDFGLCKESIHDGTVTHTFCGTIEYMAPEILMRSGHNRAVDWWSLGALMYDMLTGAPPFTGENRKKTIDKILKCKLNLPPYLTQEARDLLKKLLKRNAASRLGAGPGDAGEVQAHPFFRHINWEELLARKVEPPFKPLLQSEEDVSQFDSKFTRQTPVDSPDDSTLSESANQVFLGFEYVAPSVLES

NCC(O)(c1ccc(Cl)cc1)c1ccc(I)cc1 (racemic) [compound of the formula (12), 2-amino-1-(4-chloro-phenyl)-1-[4-iodo-phenyl]-ethanol]
activity against the kinase PKB (PKB): have activity against the kinase PKB

CNC[C@@H](c1ccc(Cl)cc1)c1ccc(-c2cn[nH]c2)cc1 (single isomer, unassigned) [Isomer A]
fold more active against PKB than its antipode [1]: 10 fold

NC[C@@H](c1ccc(Cl)cc1)c1ccc(-c2cn[nH]c2)cc1 (single isomer, unassigned) [Isomer C]
fold more active against PKB than its antipode [1]: about 10 fold
activity in mechanistic cellular ELISA assay [2]: essentially equipotent

NC[C@H](c1ccc(Cl)cc1)c1ccc(-c2cn[nH]c2)cc1 (single isomer, unassigned) [Isomer D]
activity in mechanistic cellular ELISA assay [2]: essentially equipotent

C[C@@H](N)[C@H]1CC[C@H](C(=O)Nc2ccncc2)CC1 [Example Y-27632]
effective doses for the use of this compound (ROCK): approximately 30 uM

NC[C@](O)(c1ccc(Cl)cc1)c1ccc(-c2cn[nH]c2)cc1 [R-enantiomer, (R)-2-amino-1-(4-chloro-phenyl)-1-[4-(1H-pyrazol-4-yl)-phenyl]-ethanol]
pIC50 (PKA catalytic domain; isolated enzyme, read-out: IC50 against PKA): 6.60
pIC50 ([2]; Homo sapiens, U-87 MG, U87MG cells, 1 hour with inhibitor): < 4.30
activity in mechanistic cellular ELISA assay [2]: no measurable activity

NC[C@@](O)(c1ccc(Cl)cc1)c1ccc(-c2cn[nH]c2)cc1 [compound of formula (I), (S)-2-amino-1-(4-chloro-phenyl)-1-[4-(1H-pyrazol-4-yl)-phenyl]-ethanol]
inhibition at 0.03 µM (PKA catalytic domain; at a concentration of 0.03 μM): 44%
pIC50 (CYP450 1A2): < 5.00
pIC50 (CYP450 2C9): < 5.00
pIC50 (CYP450 2C19): < 5.00
pIC50 (CYP450 2D6): < 5.00
activity in mechanistic cellular ELISA assay [2]: good activity
pIC50 (ROCK-II (h)): > 8.00
pIC50 (P70S6 kinase (T412E)): 7.92
hERG ion channel blocking activity (hERG K+ ion channel): negligible
